One data set addresses T1, HO-1 (rat spleen) (Rattus norvegicus, UniProt P06762).
T1 construct: Spleen microsomes were used as a source of HO-1; from tissue; host or cells: spleen microsomal fraction of adult male Sprague-Dawley rats
T1 sequence (P06762 1-289): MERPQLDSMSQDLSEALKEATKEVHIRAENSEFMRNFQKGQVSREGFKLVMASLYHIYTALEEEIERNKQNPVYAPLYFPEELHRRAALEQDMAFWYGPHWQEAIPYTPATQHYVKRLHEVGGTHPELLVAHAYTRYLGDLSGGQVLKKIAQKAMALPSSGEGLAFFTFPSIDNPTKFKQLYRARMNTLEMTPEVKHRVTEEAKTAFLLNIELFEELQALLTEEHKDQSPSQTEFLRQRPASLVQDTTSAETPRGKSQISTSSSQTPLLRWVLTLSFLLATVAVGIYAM
Put plainly: HO enzymatic activity in rat spleen microsomal fraction (CO formed from methemalbumin, gas chromatography). It counts as biochemical. The note with it: rat spleen microsomes; average ± standard deviation of replicate experiments; read-out: IC50 HO-1 (rat spleen)/μM.

Another data set concerns the target T2, HO-2 (rat brain) (Rattus norvegicus, UniProt P23711).
T2 construct: brain microsomes were used as a source of HO-2; from tissue; host or cells: brain microsomal fraction of adult male Sprague-Dawley rats
T2 sequence (P23711 1-315): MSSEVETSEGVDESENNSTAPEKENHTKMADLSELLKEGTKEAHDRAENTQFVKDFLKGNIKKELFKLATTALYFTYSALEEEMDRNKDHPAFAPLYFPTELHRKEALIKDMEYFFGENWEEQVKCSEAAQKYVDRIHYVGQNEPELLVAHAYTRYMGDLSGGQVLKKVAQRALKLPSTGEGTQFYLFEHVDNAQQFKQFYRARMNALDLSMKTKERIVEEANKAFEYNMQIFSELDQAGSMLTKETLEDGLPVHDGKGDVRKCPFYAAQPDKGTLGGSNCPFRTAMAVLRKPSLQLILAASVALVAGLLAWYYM
Put plainly: HO enzymatic activity in rat brain microsomal fraction (CO formed from methemalbumin, gas chromatography). It counts as biochemical. Particulars: rat brain microsomes; average ± standard deviation of replicate experiments; read-out: IC50 HO-2 (rat brain)/μM.

Our source for the melting point and IC50 values is US20140155445A1, “Compounds and Methods for Treating Cancer and Diseases of the Central Nervous System” (Osta Biotechnologies Inc., priority 2007, published 2014).

Structures can show the parent of a compound that is named as a salt.

Take `Cl.Clc1ccc(CC[C@@]2(Cn3ccnc3)OC[C@@H](CSC3CCCCC3)O2)cc1`: the melting point was in the range of 172 to 173 °C. On the same count and under the same terms, the figure for `Cl.Clc1ccc(CC[C@@]2(Cn3ccnc3)OC[C@@H](CSc3cccc(Br)c3)O2)cc1` is 128 to 129 °C; for `C[C@H]1CO[C@@](CCc2ccc(Cl)cc2)(Cn2ccnc2)O1.Cl` it is 148 to 149 °C. As for `C[C@H]1CO[C@](CCc2ccc(Cl)cc2)(Cn2ccnc2)O1.Cl`, the melting point lay in the range of 172 to 173 °C.

Consider `C[C@@H]1CO[C@](CCc2ccc(Cl)cc2)(Cn2ccnc2)O1.Cl`, for which the melting point fell in the range of 152 to 153 °C. Still for that read-out and setting: the value for `Cl.Clc1ccc(CC[C@@]2(Cn3ccnc3)OC[C@@H](CSc3ccc(Br)cc3)O2)cc1` was 141 to 142 °C.

On to `Cl.Oc1ccc(OC[C@H]2CO[C@@](CCc3ccc(Cl)cc3)(Cn3ccnc3)O2)cc1`, for which the melting point was 128 to 130 °C. In turn, `COc1ccc(SC[C@@H]2CO[C@@](CCc3ccc(Cl)cc3)(Cn3ccnc3)O2)cc1.Cl` registered a melting point of 139 to 140 °C.

As for `Cl.Clc1ccc(CC[C@@]2(Cn3ccnc3)OC[C@@H](CSc3ccc(Cl)cc3)O2)cc1`, the melting point is 128 to 129 °C.

In turn, `Cl.Fc1ccc(SC[C@@H]2CO[C@@](CCc3ccc(Cl)cc3)(Cn3ccnc3)O2)cc1` showed a melting point of 112 to 113 °C. Still for that read-out and setting: the figure for `Cl.Fc1ccc(CCC2(Cn3ccnc3)OCCO2)cc1` is 153 to 154 °C; for `Cl.c1ccc(CCC2(Cn3ccnc3)OCCO2)cc1` it is 164 to 165 °C; for `Cl.FC(F)(F)c1ccc(SC[C@@H]2CO[C@@](CCc3ccc(Cl)cc3)(Cn3ccnc3)O2)nc1` it is 156 to 157 °C.

In the case of `Cl.Clc1ccc(CC[C@@]2(Cn3ccnc3)OC[C@H](COc3ccc(C45CC6CC(CC(C6)C4)C5)cc3)O2)cc1`, the melting point was in the range of 132 to 134 °C. On the same count and under the same terms, the figure for `Cl.OC(CCc1ccc(F)cc1)Cn1ccnc1` (racemic) is 86 to 87 °C; for `Cl.Clc1ccc(CC[C@@]2(Cn3ccnc3)OC[C@@H](COc3ccc(Br)cc3)O2)cc1` (stereo in doubt) it is 55 to 57 °C; for `Cl.Clc1ccc(CC[C@@]2(Cn3ccnc3)OC[C@@H](COc3ccc(I)cc3)O2)cc1` (stereo in doubt) it is 113 to 114 °C.

Regarding `Nc1ccccc1SC[C@H]1CO[C@](CCc2ccc(Cl)cc2)(Cn2ccnc2)O1` [(2S,4R)-2-[2-(4-chlorophenyl)ethyl]-2-[(1H-imidazol-1-yl)methyl]-4-[{(2-aminophenyl)thio}meth-yl]-1,3-dioxolane hydrochloride], the IC50 at HO-1 (rat spleen) is ~4.2 µM; at HO-2 (rat brain), > 100 µM. On the same counts, the results for `C[C@@H]1CO[C@](CCc2ccc(Cl)cc2)(Cn2ccnc2)O1` [(2S,4R)-2-[2-(4-chlorophenyl)ethyl]-2-[(1H-imidazol-1-yl)methyl]-4-methyl-1,3-dioxolane hydrochloride] are 20 ± 4 µM and > 100 µM. The corresponding values for `Clc1ccc(CC[C@]2(Cn3ccnc3)OC[C@@H](CSc3ccc4ccccc4c3)O2)cc1` [(2S,4S)-2-[2-(4-chlorophenyl)ethyl]-2-[(1H-imidazol-1-yl)methyl]-4-[{(2-naphthyl)thio}methyl]-1,3-dioxolane hydrochloride] are 14 ± 2 µM and 62 ± 7 µM. The corresponding values for `C[C@H]1CO[C@](CCc2ccc(Cl)cc2)(Cn2ccnc2)O1` [(2S,4S)-2-[2-(4-chlorophenyl)ethyl]-2-[(1H-imidazol-1-yl)methyl]-4-methyl-1,3-dioxolane hydrochloride] are 12 ± 4 µM and > 100 µM. With `COC(=O)Nc1nc2ccc([S+]([O-])c3ccccc3)cc2[nH]1` (stereo not shown) [(5-benzenesulfinyl-1H-benzoimidazol-2-yl)-carbamic acid methyl ester], the figures for the IC50 at HO-1 (rat spleen) and on HO-2 (rat brain) were 115 µM and > 100 µM, respectively.

On to `c1ccc2[nH]cnc2c1` [Benzimidazole, reference compound], for which the IC50 on HO-1 (rat spleen) and at HO-2 (rat brain) was > 100 µM throughout. On to `COC(=O)Nc1nc2ccc(Sc3ccccc3)cc2[nH]1` [Fenbendazol, reference compound], for which the IC50 on HO-1 (rat spleen) and on HO-2 (rat brain) was > 100 µM in each case. Turning to `COC(=O)Nc1nc2cc(C(=O)c3ccc(F)cc3)ccc2[nH]1` [Flubendazol, reference compound], the IC50 at HO-1 (rat spleen) and at HO-2 (rat brain) was > 100 µM throughout. Turning to `COC(=O)Nc1nc2ccc(C(=O)c3cccs3)cc2[nH]1` [Nocodazole, reference compound], the IC50 at HO-1 (rat spleen) and at HO-2 (rat brain) was > 100 µM each time. For the molecule `FC[C@@H]1CO[C@@](CCc2ccc(Cl)cc2)(Cn2ccnc2)O1` [drawing 85, (2R,4S)-2-[2-(4-chlorophenyl)ethyl]-2-[(1H-imidazol-1-yl)methyl]-4-(fluoromethyl)-1,3-dioxolane hydrochloride], the IC50 on HO-1 (rat spleen) came out at 1.2 ± 0.01 µM; at HO-2 (rat brain) it was 4.4 ± 0.4 µM.

As for `O=C(CCc1ccccc1)Cn1cnc(-c2ccccc2)c1` [drawing 162, 4-Phenyl-1-(4-phenyl-imidazol-1-yl)-butan-2-one hydrochloride], the IC50 on HO-1 (rat spleen) is 32 ± 2 µM; at HO-2 (rat brain) it was > 100 µM. The corresponding values for `O=C(CCc1ccccc1)Cn1cnc(-c2ccccc2)c1` [drawing 256, 4-Phenyl-1-(4-phenyl-1H-imidazol-1-yl)-butan-2-one hydrochloride] are 32 ± 2 µM and > 100 µM. The corresponding values for Imidazole [reference compound] are > 100 µM and > 100 µM.

In general, melting point refers to the temperature of the solid-liquid transition.
